Laboratory results published in patent US10894807B2 (Siemens Medical Solutions USA, Inc., priority 2011, dated 2021).

Target: human PSMA (Homo sapiens (Human), UniProt Q04609)
Assay: Enzymatic assay for in vitro evaluation of PSMA inhibitors (fluorescent assay of PSMA activity, NAAG substrate, OPA detection of glutamate)
Format: biochemical

Chain of human PSMA (Q04609 whole entry): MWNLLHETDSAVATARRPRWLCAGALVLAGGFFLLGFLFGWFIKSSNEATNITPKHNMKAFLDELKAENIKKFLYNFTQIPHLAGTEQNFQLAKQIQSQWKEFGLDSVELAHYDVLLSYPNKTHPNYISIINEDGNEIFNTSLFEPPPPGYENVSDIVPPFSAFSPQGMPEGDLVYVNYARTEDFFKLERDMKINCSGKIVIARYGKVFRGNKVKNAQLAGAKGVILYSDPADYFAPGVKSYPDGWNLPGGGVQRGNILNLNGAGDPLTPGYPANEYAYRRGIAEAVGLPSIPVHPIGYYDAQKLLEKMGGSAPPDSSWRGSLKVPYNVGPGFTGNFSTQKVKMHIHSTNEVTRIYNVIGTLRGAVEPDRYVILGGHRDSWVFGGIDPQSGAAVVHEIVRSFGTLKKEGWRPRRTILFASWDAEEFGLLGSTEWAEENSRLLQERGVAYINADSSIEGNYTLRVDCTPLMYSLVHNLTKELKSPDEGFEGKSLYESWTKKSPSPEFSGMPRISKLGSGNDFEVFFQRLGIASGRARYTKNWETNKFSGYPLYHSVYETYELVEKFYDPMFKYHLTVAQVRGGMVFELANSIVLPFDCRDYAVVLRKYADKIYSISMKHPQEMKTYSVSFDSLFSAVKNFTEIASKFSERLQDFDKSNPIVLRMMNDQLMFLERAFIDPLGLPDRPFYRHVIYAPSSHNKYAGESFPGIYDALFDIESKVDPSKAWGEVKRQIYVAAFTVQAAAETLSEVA

| PSMA Blkg % (10 μM) | Ki | PSMA Blkg % (1.0 μM) | SMILES |
| --- | --- | --- | --- |
| 16% |  |  | O=C(O)CC[C@H](NC(=O)C[C@@H](NC(=O)Cc1ccc(F)cc1)C(=O)O)C(=O)O [P210, (S)-2-((R)-3-Carboxy-3-(2-(4-fluorophenyl)acetamido)propanamido)pentanedioic Acid] |
| 43% |  |  | O=C(O)CC[C@H](NC(=O)C[C@@H](NC(=O)CCCc1ccc(F)cc1)C(=O)O)C(=O)O [P211, (S)-2-((R)-3-Carboxy-3-(4-(4-fluorophenyl)butanamido)propanamido)pentanedioic Acid] |
| 99% | 3.1 nM |  | O=C(O)CC[C@H](NC(=O)N[C@@H](Cc1ccc(NC(=O)Nc2ccc(-n3cc(CCCF)nn3)cc2)cc1)C(=O)O)C(=O)O [P212, (S)-2-(3-((S)-1-Carboxy-2-(4-(3-(4-(4-(3-fluoropropyl)-1H-1,2,3-triazol-1-yl)phenyl)ureido)phenyl)ethyl)ureido)pentanedioic Acid] |
| 33% |  |  | O=C(O)CC[C@H](NC(=O)C[C@@H](NC(=O)c1ccc(F)nc1)C(=O)O)C(=O)O [P213, (S)-2-((R)-3-Carboxy-3-(6-fluoronicotinamido)propanamido)pentanedioic Acid] |
| 34% |  |  | O=C(O)CC[C@H](NC(=O)C[C@@H](NC(=O)NCCc1ccccc1)C(=O)O)C(=O)O [P214, (S)-2-((R)-3-Carboxy-3-(3-phenethylureido)propanamido)pentanedioic Acid] |
| 99% | 2.2 nM |  | O=C(O)CC[C@H](NC(=O)N[C@@H](Cc1ccc(NC(=O)c2ccc(-n3cc(CCCF)nn3)cc2)cc1)C(=O)O)C(=O)O [P215, (S)-2-(3-((S)-1-Carboxy-2-(4-(4-(4-(3-fluoropropyl)-1H-1,2,3-triazol-1-yl)-benzamido)-phenyl)ethyl)ureido)pentanedioic Acid] |
| 98% | 21.9 nM |  | O=C(O)CC[C@H](NC(=O)N[C@@H](Cc1ccc(NC(=O)COCCOCCOCCn2cc(CCCF)nn2)cc1)C(=O)O)C(=O)O [P216] |
| 96% | 31.3 nM |  | O=C(O)CC[C@H](NC(=O)N[C@@H](Cc1ccc(NC(=O)Cn2cc(CCCF)nn2)cc1)C(=O)O)C(=O)O [P217, (S)-2-(3-((S)-1-Carboxy-2-(4-(4-(4-(3-fluoropropyl)-1H-1,2,3-triazol-1-yl)-acetamido)-phenyl)ethyl)ureido)pentanedioic Acid] |
| 98% | 0.6 nM |  | O=C(O)CC[C@H](NC(=O)N[C@@H](CCCCNc1nc(-c2ccc(-n3cc(CCCF)nn3)cc2)cs1)C(=O)O)C(=O)O [P218, (S)-2-(3-((S)-1-Carboxy-5-((4-(4-(4-(3-fluoropropyl)-1H-1,2,3-triazol-1-yl)phenyl)thiazol-2-yl)amino)pentyl)ureido)pentanedioic Acid] |
| 74% |  |  | O=C(O)CC[C@H](NC(=O)C[C@@H](NC(=O)CCCc1ccc(-n2cc(CCCF)nn2)cc1)C(=O)O)C(=O)O [P219, (S)-2-((R)-3-Carboxy-3-(4-(4-(4-(3-fluoropropyl)-1H-1,2,3-triazol-1-yl)phenyl)butanamido)-propanamido)pentanedioic Acid] |
|  |  | 34% | O=C(O)CC[C@H](NC(=O)C[C@@H](NC(=O)CCc1ccc(-n2cc(CCCF)nn2)cc1)C(=O)O)C(=O)O [P220, (S)-2-((R)-3-Carboxy-3-(3-(4-(4-(3-fluoropropyl)-1H-1,2,3-triazol-1-yl)phenyl)-propanamido)-propanamido)pentanedioic Acid] |
|  |  | 15% | O=C(O)CC[C@H](NC(=O)C[C@@H](NC(=O)c1ccc(-n2cc(CCCF)nn2)cc1)C(=O)O)C(=O)O [P221, (S)-2-((R)-3-Carboxy-3-(4-(4-(3-fluoropropyl)-1H-1,2,3-triazol-1-yl)benzamido)propanamido)-pentanedioic Acid] |
|  | 0.56 nM | 98% | O=C(O)CC[C@H](NC(=O)N[C@@H](Cc1ccc(NC(=O)N2CCN(C(=O)OCc3ccccc3)CC2)cc1)C(=O)O)C(=O)O [P222] |
|  | 1.1 nM | 98% | O=C(O)CC[C@H](NC(=O)N[C@@H](Cc1ccc(NC(=O)Nc2ccc(C[C@H](NC(=O)N[C@@H](CCC(=O)O)C(=O)O)C(=O)O)cc2)cc1)C(=O)O)C(=O)O [P223, (2S,2′S)-2,2′-(((((1S,1′S)-((Carbonylbis(azanediyl))bis(4,1-phenylene))bis(1-carboxyethane-2,1-diyl))bis(azanediyl))bis(carbonyl))bis(azanediyl))dipentanedioic Acid] |
|  |  | 65% | O=C(O)CC[C@H](NC(=O)N[C@@H](COC(=O)N1CCN(C(=O)OCc2ccccc2)CC1)C(=O)O)C(=O)O [P224, (S)-2-(3-((S)-2-((4-((Benzyloxy)carbonyl)piperazine-1-carbonyl)oxy)-1-carboxyethyl)ureido)pentanedioic Acid] |
|  |  | 7% | O=C(O)CCC(CP(=O)(O)OCCC1CCN(C(=O)CCc2ccc(-n3cc(CCCF)nn3)cc2)CC1)C(=O)O (stereo not drawn) [P225, 2-(((2-(1-(3-(4-(4-(3-Fluoropropyl)-1H-1,2,3-triazol-1-yl)phenyl)propanoyl)piperidin-4-yl)ethoxy)(hydroxy)phosphoryl)methyl)pentanedioic Acid] |

| PSMA Blkg % (10 μM) | Ki | PSMA Blkg % (1.0 μM) | SMILES |
| --- | --- | --- | --- |
|  |  | 32% | O=C(O)CCC(CP(=O)(O)OCC1CCN(C(=O)CCCc2ccc(-n3cc(CCCF)nn3)cc2)CC1)C(=O)O (stereo not drawn) [P226, 2-((((1-(4-(4-(4-(3-Fluoropropyl)-1H-1,2,3-triazol-1-yl)phenyl)butanoyl)piperidin-4-yl)methoxy)(hydroxy)phosphoryl)methyl)pentanedioic Acid] |
|  |  | 15% | O=C(O)CCC(CP(=O)(O)OCCC1CCN(C(=O)c2ccc(-n3cc(CCCF)nn3)cc2)CC1)C(=O)O (stereo not drawn) [P227, 2-(((2-(1-(4-(4-(3-Fluoropropyl)-1H-1,2,3-triazol-1-yl)benzoyl)piperidin-4-yl)ethoxy)(hydroxy)phosphoryl)methyl)pentanedioic Acid] |
|  |  | 24% | O=C(O)CC[C@H](NC(=O)C[C@@H](NC(=O)Cn1cc(CCCF)nn1)C(=O)O)C(=O)O [P228, (S)-2-((R)-3-Carboxy-3-(2-(4-(3-fluoropropyl)-1H-1,2,3-triazol-1-yl)acetamido)propanamido)-pentanedioic Acid] |
|  |  | 25% | O=C(O)CC[C@H](NC(=O)C[C@@H](NC(=O)N1CCN(C(=O)OCc2ccccc2)CC1)C(=O)O)C(=O)O [P229, (S)-2-((R)-3-(4-((Benzyloxy)carbonyl)piperazine-1-carboxamido)-3-carboxypropanamido)-pentanedioic Acid] |
|  | 13 nM | 95% | O=C(O)CC[C@H](NC(=O)NC(CC1CCN(C(=O)CCCc2ccc(-n3cc(CCCF)nn3)cc2)CC1)C(=O)O)C(=O)O (stereo partly drawn) [P230, (2S)-2-(3-(1-Carboxy-2-(1-(4-(4-(4-(3-fluoropropyl)-1H-1,2,3-triazol-1-yl)phenyl)butanoyl)-piperidin-4-yl)ethyl)ureido)pentanedioic Acid] |
|  |  | 63% | O=C(O)CCC(C(=O)O)N1C(=O)N[C@@H](CC2CCN(C(=O)CCCc3ccc(-n4cc(CCCF)nn4)cc3)CC2)C1=O (stereo partly drawn) [P231] |
|  |  | 96% | O=C(O)CC[C@H](NC(=O)N[C@@H](CCCCNc1nc(-c2ccc(F)cc2)cs1)C(=O)O)C(=O)O [P232, (S)-2-(3-((S)-1-Carboxy-5-(4-(4-fluorophenyl)thiazol-2-ylamino)pentyl)ureido)pentanedioic Acid] |
|  |  | 96% | O=C(O)CC[C@H](NC(=O)N[C@@H](CCCCNc1nc(-c2cccc([N+](=O)[O-])c2)cs1)C(=O)O)C(=O)O [P233, (S)-2-(3-((S)-1-Carboxy-5-(4-(3-nitrophenyl)thiazol-2-ylamino)pentyl)ureido)pentanedioic Acid] |
|  |  | 86% | O=C(O)CC[C@H](NC(=O)N[C@@H](CCCCNc1nc(-c2cc3ccccc3s2)cs1)C(=O)O)C(=O)O [P234, (S)-2-(3-((S)-5-(4-(Benzo[b]thiophen-2-yl)thiazol-2-ylamino)-1-carboxypentyl)ureido) pentanedioic Acid] |
|  | < 0.3 nM | 100% | O=C(O)CC[C@H](NC(=O)N[C@@H](CCCCNc1nc(-c2ccc3c(c2)OCO3)cs1)C(=O)O)C(=O)O [P235, (S)-2-(3-((S)-5-(4-(Benzo[d][1,3]dioxol-5-yl)thiazol-2-ylamino)-1-carboxypentyl)ureido)-pentanedioic Acid] |
|  |  | 99% | O=C(O)CC[C@H](NC(=O)N[C@@H](CCCCNc1nc(-c2ccnc(Cl)c2)cs1)C(=O)O)C(=O)O [P236, (S)-2-(3-((S)-1-Carboxy-5-(4-(2-chloropyridin-4-yl)thiazol-2-ylamino)pentyl)ureido)-pentanedioic Acid] |
|  | 3.8 nM | 100% | O=C(O)CC[C@H](NC(=O)N[C@@H](Cc1ccc(NC(=O)N2CCN(C(=O)Cn3cc(CCCF)nn3)CC2)cc1)C(=O)O)C(=O)O [P237, (S)-2-(3-((S)-1-Carboxy-2-(4-(4-(2-(4-(3-fluoropropyl)-1H-1,2,3-triazol-1-yl)acetyl)piperazine-1-carboxamido)phenyl)ethyl)ureido)pentanedioic Acid] |
|  | < 0.3 nM | 100% | O=C(O)CC[C@H](NC(=O)N[C@@H](Cc1ccc(NC(=O)c2cc(C(=O)Nc3ccc(C[C@H](NC(=O)N[C@@H](CCC(=O)O)C(=O)O)C(=O)O)cc3)cc(-n3cc(CCCF)nn3)c2)cc1)C(=O)O)C(=O)O [P238, (2S,2′S)-2,2′-(((((1S,1′S)-(((5-(4-(3-Fluoropropyl)-1H-1,2,3-triazol-1-yl)isophthaloyl)bis(azanediyl))bis(4,1-phenylene))bis(1-carboxyethane-2,1-diyl))bis(azanediyl))bis(carbonyl))bis(azanediyl))dipentanedioic Acid] |
|  |  | 33% | O=C(O)CC[C@H](NC(=O)C[C@@H](NC(=O)CCNC(=O)OCc1ccccc1)C(=O)O)C(=O)O [P239, (9R,13S)-3,7,11-Trioxo-1-phenyl-2-oxa-4,8,12-triazapentadecane-9,13,15-tricarboxylic Acid] |
|  | 28 nM | 94% | O=C(O)CC[C@H](NC(=O)N[C@@H](Cc1ccc(Nc2nc(-c3ccc(-n4cc(CCCF)nn4)cc3)cs2)cc1)C(=O)O)C(=O)O [P240] |
|  | 0.38 nM | 94% | O=C(O)CC[C@H](NC(=O)N[C@@H](Cc1ccc(NC(=O)c2ccc(F)cc2)cc1)C(=O)O)C(=O)O [P241] |
